Measured values as given in patent publication US9057094B1, “Nanoparticle-mediated methods for antimicrobial susceptibility testing of bacteria” (UNIVERSITY OF CENTRAL FLORIDA RESEARCH FOUNDATION, INC., priority 2007, dated 2015).

Experiments:
E. coli [1] = experiment: Dextran-coated polysaccharide nanosensors, antimicrobial susceptibility in blood-supplemented MH broth; assay type: cell-based, Escherichia coli; settings: 2 hours at 37° C., 45 minutes following Con A addition at room temperature
Description: (§1) In order to investigate if the dextran-coated iron oxide nanoparticles can monitor the starch utilization due to bacterial metabolic activity, different populations of Escherichia coli (strain 8739 from ATCC) were grown in starch-containing MH broth (DIFCOTM, BD) for 2 hours at 37° C. For determination of the minimum inhibitory concentration, Escherichia coli (10^6 CFU), Serratia marcescens (ATCC, 106 CFU) and Shigella sonnie (strain 9290 from ATCC, 106CFU) were grown in a starch-containing MH broth (DIFCOTM, BD), for 2 hours at 37° C. in the presence or absence of ampicillin. For determination of MIC in blood, bacterial stocks (10^6 CFU) were grown in the presence or absence of ampicillin in a 5%-blood-supplemented starch-containing MH broth, for 2 hours at 37° C. […]
(§2) Lastly, due to the fact that many bacteria can either cause septicemia or require growth in optically turbid media, it is important to assess bacterial susceptibility in these complex matrices. However, most current methods cannot be utilized for the detection of molecular targets and assessment of antimicrobial susceptibility in blood, due to the strong absorbance and scattering from the matrix's constituents, including platelets and red blood cells. […] After 45 minutes following Con A addition at room temperature, we determined that the E. coli's ampicillin MIC was 8 μg, without observing any nanoparticle precipitation.

E. coli [2] = experiment: Dextran-coated iron oxide nanoparticle (IO NP)/Con A magnetic relaxation (ΔT2) assay for MIC; assay type: cell-based, Escherichia coli; settings: E. coli 10^6 CFUs, 2 hours at 37° C. in MH broth; Con A 30-minute incubation at room temperature
Description: as §1, with “ampicillin.” for “ampicillin. For determination of MIC in blood, bacterial stocks (10^6 CFU) were grown in the presence or absence of ampicillin in a 5%-blood-supplemented starch-containing MH broth, for 2 hours at 37° C.”
(§3) First, we wanted to determine if magnetic IO NPs coated with dextran could be used to determine and quantify the levels of a polysaccharide (starch) in bacterial culture media. […] The samples were examined in a Bruker 0.47 T (20 MHz) magnetic relaxometer (The MiniSpec, Bruker), and the individual sample's changes in spin-spin relaxation times (ΔT2) were determined based on the formula: |ΔT2incubation time−ΔT2prior ConA|. […]
Then, utilizing the IO NPs, we determined ampicillin's MIC. […] Specifically, the magnetic-relaxation-determined minimum inhibitory concentration was 8 μg, as at this concentration we observed a drastic change in the values of ΔT2. […]

S. marcescens [3] = experiment: Dextran-coated polysaccharide nanosensors, antimicrobial susceptibility in blood-supplemented MH broth; assay type: cell-based, Serratia marcescens; settings: 2 hours at 37° C., hour-long incubation at 25° C.
Description: as §1, §2

Serratia marcescens = experiment: Dextran-coated IO NP/Con A magnetic relaxation (ΔT2) assay of antibiotic resistance; assay type: cell-based; settings: Serratia marcescens 10^6 CFUs, 2 hours at 37° C. in MH broth; Con A 30-minute incubation at room temperature
Description: as §1, §3
(§4) We then determined the antibiotic susceptibility or resistance of other bacteria utilizing the IO NPs. […]

E. coli [4] = experiment: Con A-conjugated nanosensors (non-competition assay), blood cultures; assay type: cell-based, Escherichia coli; settings: within 5 minutes after addition of bacterial sample
Description: as §1
(§5) In our first set of experiments with the aminated silica-coated nanoparticles, we determined whether these nanoparticles clustered non-specifically in the presence of Con A in solution. […]
(§6) Then, we examined if MIC determination can be achieved using these Con A-conjugated nanosensors, in blood cultures of E. coli and S. marcescens. […] Likewise, within 5 minutes the Con A-conjugated nanosensors assessed that S. marcescens was resistant to ampicillin, further corroborating the findings that the non-competition assay format provides faster results than the competition-based assay of the dextran-coated nanosensors (FIG. 20B).

E. coli [5] = experiment: High-throughput Au-NP/Con A assay on 96-well plate; assay type: cell-based, Escherichia coli; settings: E. coli 10^6 CFU, Con A 30-min at 25° C.
Excerpt: Finally, the potential of our Au-NP-based assay for the determination of antimicrobial susceptibility in high-throughput format was investigated. In these studies, samples of heat-inactivated E. coli (10^6 CFU) and E. coli (10^6 CFU) grown in the presence or absence of ampicillin were screened with the Au-NP on a 96-well plate using a microtiter plate reader.

E. coli [6] = experiment: Dextran-coated gold nanoparticle (Au NP)/Con A surface plasmon band shift assay for MIC; assay type: cell-based, Escherichia coli; settings: E. coli 10^6 CFU, 2 hours at 37° C. in MH broth; Au NPs + Con A 30 minutes at 25° C.
Description: as §1, with “ampicillin.” for “ampicillin. For determination of MIC in blood, bacterial stocks (10^6 CFU) were grown in the presence or absence of ampicillin in a 5%-blood-supplemented starch-containing MH broth, for 2 hours at 37° C.”
Accurate determination of the minimum inhibitory concentration (MIC) can prevent adverse side effects, such as renal toxicity. […] Then, aliquots of these samples were incubated with Au NPs for 30 minutes at 25° C., in the presence of Con A. Based on the shifts of the surface plasmon band, the MIC was determined to be 8 μg, as the corresponding surface plasmon band shift was statistically different than the control, containing bacteria growing in the absence of antibiotic (FIG. 8A). […] Bacterial growth was assessed based on the broth's turbidity, whereas absence of turbidity was an indicator of successful antimicrobial susceptibility. […] This concentration was identical to the Au NP-determined MIC, though the Au NP-based method yielded the same results much faster.

S. marcescens [7] = experiment: Con A-conjugated nanosensors (non-competition assay), blood cultures; assay type: cell-based, Serratia marcescens; settings: within 5 minutes after addition of bacterial sample
Description: as §1, §5, §6

E. coli [8] = experiment: Turbidity method (24-hour incubation in MH broth) for MIC; assay type: cell-based, Escherichia coli; settings: serial dilutions in MH broth, 24-hour incubation at 37° C.
Description: Accurate determination of the minimum inhibitory concentration (MIC) can prevent adverse side effects, such as renal toxicity. Considering that the contemporary MIC determination depends on a day-long process, we examined if Au NPs can yield results faster without sacrificing reliability. Initially, E. coli (10^6 CFU) were incubated for 2 hours at 37° C. in MH broth, in the presence of different concentrations of ampicillin. Then, aliquots of these samples were incubated with Au NPs for 30 minutes at 25° C., in the presence of Con A. Based on the shifts of the surface plasmon band, the MIC was determined to be 8 μg, as the corresponding surface plasmon band shift was statistically different than the control, containing bacteria growing in the absence of antibiotic (FIG. 8A). Correlation with standard methods was achieved by inoculating serial dilutions of ampicillin in MH broth with E. coli, followed by a 24-hour long incubation at 37° C. Bacterial growth was assessed based on the broth's turbidity, whereas absence of turbidity was an indicator of successful antimicrobial susceptibility. […] This concentration was identical to the Au NP-determined MIC, though the Au NP-based method yielded the same results much faster.

Shigella sonnei = experiment: Dextran-coated IO NP/Con A magnetic relaxation (ΔT2) assay for MIC; assay type: cell-based; settings: Shigella sonnei 10^6 CFUs, 2 hours at 37° C. in MH broth; Con A 30-minute incubation at room temperature
Description: as §1, §3, §4

SMILES: CC1(C)S[C@@H]2[C@H](NC(=O)[C@H](N)c3ccccc3)C(=O)N2[C@H]1C(=O)O [ampicillin]
- Ampicillin MIC in blood (E. coli [1]): 8 µg
- Magnetic-relaxation-determined minimum inhibitory concentration (E. coli [2]): 8 µg
- Drug susceptibility or resistance in blood (S. marcescens [3]): drug resistance
- Antibiotic susceptibility or resistance (changes in T2) (Serratia marcescens): resistant
- Ampicillin MIC in blood cultures, Con A-conjugated nanosensors (E. coli [4]): 8 µg
- Categorization of sample (inhibitory or non-inhibitory) (E. coli [5]; 2 μg ampicillin): non-inhibitory
- Categorization of sample (inhibitory or non-inhibitory) (E. coli [5]; 64 μg ampicillin): inhibitory
- MIC (minimum inhibitory concentration) based on shifts of the surface plasmon band (E. coli [6]): 8 µg
- Drug susceptibility or resistance in blood cultures, Con A-conjugated nanosensors (S. marcescens [7]): resistant
- Lowest ampicillin concentration where the MH broth was clear (turbidity MIC) (E. coli [8]): 8 µg
- Magnetic-relaxation-determined minimum inhibitory concentration (Shigella sonnei): 8 µg
